Common to all, as to test: microbe, parasite or virus in culture
Holding throughout (type): cell-based

In assay [1] the test system is influenza A virus minigenome (PB2, PB1, PA, NP; luciferase reporter) in 293T cells, RNP_Alaska. The settings on record: HEK-293T, 48 h.
For assay [2], the system named is influenza A virus minigenome (PB2, PB1, PA, NP; luciferase reporter) in 293T cells, RNP_CAL. The settings on record: HEK-293T, 48 h, read-out: RNP_CAL_EC50.
Assay [3] concerns influenza A virus minigenome (PB2, PB1, PA, NP; luciferase reporter) in 293T cells, RNP_Hubei. The settings on record: HEK-293T, 48 h.

Structures are written as SMILES. pEC50: −log10 of the molar value. Bounds are passed on as bounds.

`O=C1c2c(O)c(=O)cnn2[C@@H]([C@H](c2ccc(F)cc2)c2ccc(C(F)(F)F)cc2)[C@H]2CCCN12` [Example 21, (9aR,10S)-10-((S)-(4-fluorophenyl)(4-(trifluoromethyl)phenyl)methyl)-4-hydroxy-8,9,9a,10-tetrahydro-7H-pyrrolo[1′,2′:4,5]pyrazino[1,2-b]pyridazine-3,5-dione]: the pEC50 in assay [1], in assay [2] and in assay [3] was 6.00 to 7.00 each time.

`O=C1c2c(O)c(=O)cnn2[C@@H]([C@H](c2ccc(F)cc2)c2cccc(OC(F)(F)F)c2)[C@H]2CCCN12` [Example 22, (9aR,10S)-10-((R)-(4-fluorophenyl)(3-(trifluoromethoxy)phenyl)methyl)-4-hydroxy-8,9,9a,10-tetrahydro-7H-pyrrolo[1′,2′:4,5]pyrazino[1,2-b]pyridazine-3,5-dione]: the pEC50 in assay [1], in assay [2] and in assay [3] was 6.00 to 7.00 in each case.

`O=C1c2c(O)c(=O)cnn2[C@@H]([C@H](c2ccc(F)cc2)c2ccc(OC(F)(F)F)cc2)[C@H]2CCCN12` [Example 23, (9aR,10S)-10-((S)-(4-fluorophenyl)(4-(trifluoromethoxy)phenyl)methyl)-4-hydroxy-8,9,9a,10-tetrahydro-7H-pyrrolo[1′,2′:4,5]pyrazino[1,2-b]pyridazine-3,5-dione]: the pEC50 in assay [1] is no more than 6.00; in assay [2] it was 6.00 to 7.00; in assay [3], 6.00 to 7.00.

Turning to `COc1cccc([C@@H](c2ccc(F)cc2)[C@H]2[C@H]3CCCN3C(=O)c3c(O)c(=O)cnn32)c1` [Example 24, (9aR,10S)-10-((R)-(4-fluorophenyl)(3-methoxyphenyl)methyl)-4-hydroxy-8,9,9a,10-tetrahydro-7H-pyrrolo[1′,2′:4,5]pyrazino[1,2-b]pyridazine-3,5-dione], the pEC50 in assay [1], in assay [2] and in assay [3] was 6.00 to 7.00 in each case.

Consider `COc1ccccc1[C@@H](c1ccc(F)cc1)[C@H]1[C@H]2CCCN2C(=O)c2c(O)c(=O)cnn21` [Example 25, (9aR,10S)-10-((R)-(4-fluorophenyl)(2-methoxyphenyl)methyl)-4-hydroxy-8,9,9a,10-tetrahydro-7H-pyrrolo[1′,2′:4,5]pyrazino[1,2-b]pyridazine-3,5-dione], for which the pEC50 in assay [1], in assay [2] and in assay [3] was 6.00 to 7.00 in each case.

For the compound `COc1ccc([C@@H](c2ccc(F)cc2)[C@H]2[C@H]3CCCN3C(=O)c3c(O)c(=O)cnn32)cc1` [Example 26, (9aR,10S)-10-((S)-(4-fluorophenyl)(4-methoxyphenyl)methyl)-4-hydroxy-8,9,9a,10-tetrahydro-7H-pyrrolo[1′,2′:4,5]pyrazino[1,2-b]pyridazine-3,5-dione], the pEC50 in assay [1], in assay [2] and in assay [3] was 6.00 to 7.00 each time.

Turning to `O=C1c2c(O)c(=O)cnn2[C@@H]([C@@H](c2ccc(F)c(F)c2)c2cccc(F)c2F)[C@H]2CCCN12` [Example 27, (9aR,10S)-10-((S)-(2,3-difluorophenyl)(3,4-difluorophenyl)methyl)-4-hydroxy-8,9,9a,10-tetrahydro-7H-pyrrolo[1′,2′:4,5]pyrazino[1,2-b]pyridazine-3,5-dione], the pEC50 is 6.00 to 7.00 in assay [1], greater than 7.00 in assay [2] and greater than 7.00 in assay [3].

For `O=C1c2c(O)c(=O)cnn2[C@@H]([C@@H](c2ccccc2F)c2cccc(F)c2F)[C@H]2CCCN12` [Example 28, (9aR,10S)-10-((S)-(2,3-difluorophenyl)(2-fluorophenyl)methyl)-4-hydroxy-8,9,9a,10-tetrahydro-7H-pyrrolo[1′,2′:4,5]pyrazino[1,2-b]pyridazine-3,5-dione], the pEC50 in assay [1], in assay [2] and in assay [3] was greater than 7.00 each time.

Take `COc1cccc([C@@H](c2cccc(F)c2F)[C@H]2[C@H]3CCCN3C(=O)c3c(O)c(=O)cnn32)c1` [Example 29, (9aR,10S)-10-((S)-(2,3-difluorophenyl)(3-methoxyphenyl)methyl)-4-hydroxy-8,9,9a,10-tetrahydro-7H-pyrrolo[1′,2′:4,5]pyrazino[1,2-b]pyridazine-3,5-dione]: the pEC50 in assay [1], in assay [2] and in assay [3] was 6.00 to 7.00 throughout.

Consider `COC(=O)OCOc1c2n(ncc1=O)[C@@H]([C@H](c1ccccc1)c1cccc(F)c1F)[C@H]1CCCN1C2=O` [Example 30, (((9aR,10S)-10-((R)-(2,3-difluorophenyl)(phenyl)methyl)-3,5-dioxo-3,5,8,9,9a,10-hexahydro-7H-pyrrolo[1′,2′:4,5]pyrazino[1,2-b]pyridazin-4-yl)oxy)methyl methyl carbonate], for which the pEC50 in assay [1], in assay [2] and in assay [3] was greater than 7.00 each time.

`CC(C)C(=O)Oc1c2n(ncc1=O)[C@@H]([C@H](c1ccccc1)c1cccc(F)c1F)[C@H]1CCCN1C2=O` [Example 31, (9aR,10S)-10-((R)-(2,3-difluorophenyl)(phenyl)methyl)-3,5-dioxo-3,5,8,9,9a,10-hexahydro-7H-pyrrolo[1′,2′:4,5]pyrazino[1,2-b]pyridazin-4-yl isobutyrate]: the pEC50 in assay [1], in assay [2] and in assay [3] was greater than 7.00 each time.

With `CC(C)C(=O)OCOc1c2n(ncc1=O)[C@@H]([C@H](c1ccccc1)c1cccc(F)c1F)[C@H]1CCCN1C2=O` [Example 32, (((9aR,10S)-10-((R)-(2,3-difluorophenyl)(phenyl)methyl)-3,5-dioxo-3,5,8,9,9a,10-hexahydro-7H-pyrrolo[1′,2′:4,5]pyrazino[1,2-b]pyridazin-4-yl)oxy)methyl isobutyrate], the pEC50 in assay [1], in assay [2] and in assay [3] was greater than 7.00 each time.

Turning to `COC(=O)OC(C)Oc1c2n(ncc1=O)[C@@H]([C@H](c1ccccc1)c1cccc(F)c1F)[C@H]1CCCN1C2=O` (stereo partly drawn) [Example 33, 1-(((9aR,10S)-10-((R)-(2,3-difluorophenyl)(phenyl)methyl)-3,5-dioxo-3,5,8,9,9a,10-hexahydro-7H-pyrrolo[1′,2′:4,5]pyrazino[1,2-b]pyridazin-4-yl)oxy)ethyl methyl carbonate], the pEC50 in assay [1] is 6.00 to 7.00; in assay [2] it was greater than 7.00; in assay [3] it was greater than 7.00.

Take `CC(C)OC(=O)Oc1c2n(ncc1=O)[C@@H]([C@H](c1ccccc1)c1cccc(F)c1F)[C@H]1CCCN1C2=O` [Example 34, (9aR,10S)-10-((R)-(2,3-difluorophenyl)(phenyl)methyl)-3,5-dioxo-3,5,8,9,9a,10-hexahydro-7H-pyrrolo[1′,2′:4,5]pyrazino[1,2-b]pyridazin-4-yl isopropyl carbonate]: the pEC50 in assay [1], in assay [2] and in assay [3] was greater than 7.00 each time.

`CN(C)C(=O)Oc1c2n(ncc1=O)[C@@H]([C@H](c1ccccc1)c1cccc(F)c1F)[C@H]1CCCN1C2=O` [Example 35, (9aR,10S)-10-((R)-(2,3-difluorophenyl)(phenyl)methyl)-3,5-dioxo-3,5,8,9,9a,10-hexahydro-7H-pyrrolo[1′,2′:4,5]pyrazino[1,2-b]pyridazin-4-yl dimethylcarbamate]: the pEC50 in assay [1], in assay [2] and in assay [3] was no more than 6.00 in each case.

Turning to `CN1CCN(C(=O)OCOc2c3n(ncc2=O)[C@@H]([C@H](c2ccccc2)c2cccc(F)c2F)[C@H]2CCCN2C3=O)CC1` [Example 36, (((9aR,10S)-10-((R)-(2,3-difluorophenyl)(phenyl)methyl)-3,5-dioxo-3,5,8,9,9a,10-hexahydro-7H-pyrrolo[1′,2′:4,5]pyrazino[1,2-b]pyridazin-4-yl)oxy)methyl 4-methylpiperazine-1-carboxylate], the pEC50 in assay [1], in assay [2] and in assay [3] was no more than 6.00 in each case.

Take `COC(C)(C)CC(=O)Oc1c2n(ncc1=O)[C@@H]([C@H](c1ccccc1)c1cccc(F)c1F)[C@H]1CCCN1C2=O` [Example 39, (9aR,10S)-10-((R)-(2,3-difluorophenyl)(phenyl)methyl)-3,5-dioxo-3,5,8,9,9a,10-hexahydro-7H-pyrrolo[1′,2′:4,5]pyrazino[1,2-b]pyridazin-4-yl 3-methoxy-3-methylbutanoate]: the pEC50 in assay [1], in assay [2] and in assay [3] was greater than 7.00 in each case.

As to `COC(C)(C)C(=O)Oc1c2n(ncc1=O)[C@@H]([C@H](c1ccccc1)c1cccc(F)c1F)[C@H]1CCCN1C2=O` [Example 40, (9aR,10S)-10-((R)-(2,3-difluorophenyl)(phenyl)methyl)-3,5-dioxo-3,5,8,9,9a,10-hexahydro-7H-pyrrolo[1′,2′:4,5]pyrazino[1,2-b]pyridazin-4-yl 2-methoxy-2-methylpropanoate], the pEC50 in assay [1], in assay [2] and in assay [3] was greater than 7.00 throughout.

As for `COC(=O)C(C)(C)OC(=O)OCOc1c2n(ncc1=O)[C@@H]([C@H](c1ccccc1)c1cccc(F)c1F)[C@H]1CCCN1C2=O` [Example 42, methyl 2-((((((9aR,10S)-10-((R)-(2,3-difluorophenyl)(phenyl)methyl)-3,5-dioxo-3,5,8,9,9a,10-hexahydro-7H-pyrrolo[1′,2′:4,5]pyrazino[1,2-b]pyridazin-4-yl)oxy)methoxy)carbonyl)oxy)-2-methylpropanoate], the pEC50 in assay [1], in assay [2] and in assay [3] was 6.00 to 7.00 in each case.

For the compound `Cc1oc(=O)oc1COc1c2n(ncc1=O)[C@@H]([C@H](c1ccccc1)c1cccc(F)c1F)[C@H]1CCCN1C2=O` [Example 43, (9aR,10S)-10-((R)-(2,3-difluorophenyl)(phenyl)methyl)-4-((5-methyl-2-oxo-1,3-dioxol-4-yl)methoxy)-8,9,9a,10-tetrahydro-7H-pyrrolo[1′,2′:4,5]pyrazino[1,2-b]pyridazine-3,5-dione], the pEC50 in assay [1], in assay [2] and in assay [3] was greater than 7.00 throughout.

The values are drawn from US12071441B2, “10-(di(phenyl)methyl)-4-hydroxy-8,9,9A,10-tetrahydro-7H-pyrrolo[1′,2′:4,5]pyrazino[1,2-b]pyridazine-3,5-dione derivatives and related compounds as inhibitors of the orthomyxovirus replication for treating influenza” (Novartis AG, priority 2018, dated 2024).
